{"source": "patent US9133199B2", "about": "“Pyrimidine derivatives as protein kinase inhibitors” (Cyclacel Limited, priority 2007, dated 2015)", "key": {"PLK2": {"target": "PLK2 (Homo sapiens (Human), UniProt Q9NYY3)", "sequence (Q9NYY3 whole entry)": "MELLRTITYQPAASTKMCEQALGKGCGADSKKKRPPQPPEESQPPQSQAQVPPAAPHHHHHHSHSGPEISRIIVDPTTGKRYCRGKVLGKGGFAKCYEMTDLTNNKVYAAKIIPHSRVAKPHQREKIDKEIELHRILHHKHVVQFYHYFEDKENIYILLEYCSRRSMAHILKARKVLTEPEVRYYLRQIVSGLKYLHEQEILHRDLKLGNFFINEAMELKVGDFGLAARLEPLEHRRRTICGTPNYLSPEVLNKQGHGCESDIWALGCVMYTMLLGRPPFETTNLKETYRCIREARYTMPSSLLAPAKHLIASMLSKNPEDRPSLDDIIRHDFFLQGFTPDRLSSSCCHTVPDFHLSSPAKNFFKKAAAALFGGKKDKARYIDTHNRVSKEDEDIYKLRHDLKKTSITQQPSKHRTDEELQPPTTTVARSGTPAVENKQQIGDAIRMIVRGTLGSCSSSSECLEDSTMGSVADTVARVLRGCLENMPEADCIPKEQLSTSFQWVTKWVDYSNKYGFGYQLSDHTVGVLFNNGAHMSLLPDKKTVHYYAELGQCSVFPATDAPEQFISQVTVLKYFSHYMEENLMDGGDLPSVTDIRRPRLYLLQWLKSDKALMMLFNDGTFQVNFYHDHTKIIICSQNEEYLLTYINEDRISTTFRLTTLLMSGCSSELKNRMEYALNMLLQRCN", "assay": "PLK selectivity: PLK2 inhibition", "format": "biochemical", "settings": "for PLK2 IC50/PLK1 IC50: selectivity ratio"}, "PLK3": {"target": "PLK3 (Homo sapiens (Human), UniProt Q9H4B4)", "sequence (Q9H4B4 whole entry)": "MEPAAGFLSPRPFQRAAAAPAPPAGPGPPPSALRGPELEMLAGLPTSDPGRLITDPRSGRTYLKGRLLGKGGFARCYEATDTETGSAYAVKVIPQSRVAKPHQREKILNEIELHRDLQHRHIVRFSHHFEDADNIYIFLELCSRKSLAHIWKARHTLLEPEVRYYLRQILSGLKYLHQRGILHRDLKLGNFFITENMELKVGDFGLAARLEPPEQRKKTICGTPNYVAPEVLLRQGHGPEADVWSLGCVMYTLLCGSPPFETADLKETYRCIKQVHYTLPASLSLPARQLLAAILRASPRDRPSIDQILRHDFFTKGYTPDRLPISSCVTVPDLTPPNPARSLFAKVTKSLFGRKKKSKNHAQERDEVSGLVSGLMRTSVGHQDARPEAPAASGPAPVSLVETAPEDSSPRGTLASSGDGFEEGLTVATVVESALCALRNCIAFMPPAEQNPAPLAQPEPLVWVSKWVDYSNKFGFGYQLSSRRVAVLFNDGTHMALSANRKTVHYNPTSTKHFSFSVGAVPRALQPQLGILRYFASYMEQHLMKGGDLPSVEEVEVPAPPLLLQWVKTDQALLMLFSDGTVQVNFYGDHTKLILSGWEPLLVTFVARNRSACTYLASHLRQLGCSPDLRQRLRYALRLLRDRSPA", "assay": "PLK selectivity: PLK3 inhibition", "format": "biochemical", "settings": "for PLK3 IC50/PLK1 IC50: selectivity ratio"}, "human PLK1": {"target": "human PLK1 (Homo sapiens (Human), UniProt P53350)", "sequence (P53350 whole entry)": "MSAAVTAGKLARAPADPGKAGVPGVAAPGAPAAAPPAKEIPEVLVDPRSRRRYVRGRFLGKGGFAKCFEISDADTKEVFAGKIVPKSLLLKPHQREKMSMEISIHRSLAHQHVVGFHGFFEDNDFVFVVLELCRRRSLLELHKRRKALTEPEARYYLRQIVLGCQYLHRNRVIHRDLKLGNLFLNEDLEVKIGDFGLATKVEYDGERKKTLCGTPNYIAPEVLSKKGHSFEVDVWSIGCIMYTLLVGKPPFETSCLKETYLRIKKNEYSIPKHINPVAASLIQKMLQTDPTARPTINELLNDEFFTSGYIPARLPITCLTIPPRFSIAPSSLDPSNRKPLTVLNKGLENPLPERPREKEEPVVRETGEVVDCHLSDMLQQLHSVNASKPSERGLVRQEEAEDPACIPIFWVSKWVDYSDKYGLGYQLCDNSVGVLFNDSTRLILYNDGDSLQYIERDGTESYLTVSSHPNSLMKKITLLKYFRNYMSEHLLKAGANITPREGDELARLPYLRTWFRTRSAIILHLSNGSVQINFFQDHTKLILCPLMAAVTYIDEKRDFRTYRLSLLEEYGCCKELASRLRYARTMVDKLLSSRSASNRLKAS", "assay": "PLK1 protein kinase assay (CDC25C phosphorylation, [γ-32P]-ATP)", "format": "biochemical", "text": "A full-length human CDC25C clone was isolated by PCR from HeLa mRNA and was inserted on a BamHI-HindIII fragment into pRsetA. The amino terminal fragment of CDC25C (encoding residues 1-300) was excised from this vector and inserted into pET28a (between the NcoI and BamHI sites). Expression was under the control of the T7 promoter, and the encoded protein contained a His6 tag at the carboxyl terminus. The vector was transformed into E. coli strain BRL(DE3) pLysS for expression experiments. CDC25C was expressed in BL21(DE3) RIL bacteria cells, grown in LB media at 37° C. until OD600 nm of 0.6 was reached. The expression was induced with 1 mM IPTG and the bacterial culture was grown further for 3 h. The bacteria were harvested by centrifugation and the cell pellet was re-suspended in 50 mM Tris pH 7.5 and 10% sucrose, flash frozen, and stored at −70° C. until used. CDC25C protein was purified from E. coli inclusion bodies. The inclusion bodies were isolated in a buffer (50 mM Tris pH 8.0, 2 mM EDTA, 100 mM NaCl, 0.5% triton X-100). After denaturation in the presence of 6 M urea, the protein was refolded via slow dialysis of the urea. The protein was stored in 25 mM Tris pH 8.0, 100 mM NaCl, 1 mM DTT, 1 mM EDTA and 10% glycerol at −70° C. until used.\nThe 3′ primer ([sequence]) incorporated a stop codon prior to the EcoR1 site. The PCR product was cloned into the Nhe1/EcoR1 sites of a baculovirus expression vector, pSSP1. […] Sf9 cells of a passage number less than 20 were split back to give a 300 mL culture volume, at a cell density of 1.5×10^6 cells/mL. Cells were only used for expression in logarithmic growth phase. PLK1 baculovirus (from P2 amplification) was added to give a multiplicity of infection of 3, this is equivalent to 3 virus particles for each insect cell. The flasks were incubated at 27° C., with shaking at 100 r.p.m. for 48 h. On harvest, cell density and viability was determined, the cultures spun down at 2500 r.p.m. for 5 min and washed with ice-cold phosphate-buffered saline. The wash was re-spun at the same speed and the pellet was snap frozen. PLK1 protein was purified on a metal affinity column.\nPLK1 protein kinase assays were carried out using a 96−well plate format by incubating CDC25C (2 μg/well) with PLK1 (1 μg/well) in 20 mM Tris/HCl buffer pH 7.5, supplemented with 25 mM β-glycerophosphate, 5 mM EGTA, 1 mM DTT and 1 mM NaVO3. Serial dilutions of test compound in assay buffer were added. Reaction was initiated by the addition of 100 μM ATP and 0.5 μCi of [γ-^32P]-ATP. The reaction mixture was incubated at 30° C. for 1 h, then stopped with 75 mM aq orthophosphoric acid, transferred onto a 96-well P81 filter plate (Whatman), dried, and the extent of CDC25C phosphorylation was assessed by scintillation counting using a Packard TopCount plate reader. The raw assay data was analysed by non-linear regression analysis parameters and IC50 values were determined using the equation: y=A+((B−A)/(1+((C/x)^D))), where y is % inhibition, A is minimum inhibition, B is maximum inhibition, C is EC50, and D is the slope factor."}, "[1]": {"assay": "Nephelometry kinetic solubility", "format": "physicochemical", "source_text": "If a DMSO solution of a water soluble compound is introduced into aqueous buffer, the mixture remains clear unless the aqueous solubility limit is reached. Above the solubility limit, precipitation occurs and light travelling through the turbid suspension is scattered. The measurement of the intensity of the scattered light is the basis of nephelometric solubility determination.\nSelected compounds were screened using a nephelometer to identify the concentration at which turbidity occurs, thereby giving an indication of kinetic solubility. By nephelometry (2% DMSO: 98% phosphate buffered saline pH 7.5) compound [254] was freely soluble at 200 μM (>0.11 mg/mL) which is the highest concentration tested in this assay. In contrast, in the same nephelometry assay, the maximum soluble concentration of prior art Example [I-253] of WO 07/095,188 was determined to be 75 μM (Table 6)."}, "[2]": {"assay": "Pharmacokinetics in fasted conscious CD-1 mice (iv and oral)", "format": "in vivo", "settings": "compared to compounds A-G", "procedure": "Preliminary investigations of the pharmacokinetics of selected compounds were carried out in fasted conscious CD-1 mice (25-30 g). Compounds were dosed as 1 mg/kg by intravenous administration or 5-10 mg/kg by oral route. Twenty one male mice per administration route (n=3 mice per time point) received dose solution by single bolus injection in the tail vein or by oral gavage. Blood samples were collected by cardiac puncture at 5, 15, 30, 60, 120, 240 and 360 min following iv administration and at 30, 60, 120, 240, 360, 480 and 1440 min following oral administration. Blood samples were collected into tubes containing the anti-coagulant lithium heparin, mixed and placed promptly on crushed ice. Plasma was derived from whole blood by centrifugation, frozen and stored at −80° C. prior to analysis. Plasma concentrations were determined by liquid chromatography-tandem mass spectrometry in electrospray positive mode (ESI LC/MS/MS) using calibration curves prepared in the appropriate matrix. The lower level of quantification (LLOQ) in all cases was ca. 5 ng/mL. Plasma concentration-time data was processed using the computer program WinNonLin version 5.2 from which areas under the plasma concentration-time curve (AUCall) were calculated by non-compartmental analysis using Model 201 (IV-bolus Input) or Model 200 (Extravascular Input).\nFIG. 1 plots the area under the curve (AUC) for plasma concentration vs time for each compound tested. The dosing vehicle across these experiments remained constant (intravenous=citrate buffer pH 3, 1 mL/kg; oral=DMA/PEG400/10 mM Tartrate buffer, pH 4 (1:3:6), 5 ml/kg). FIG. 2 represents the same data in the form of oral bioavailability (% F) for each compound."}, "[3]": {"settings": "phosphate buffered saline with 2% DMSO, pH 7.5, aqueous buffer, kinetic from dmso stock, 2% DMSO: 98% phosphate buffered saline pH 7.5, highest concentration tested 200 μM, read-out: Nephelometry maximum soluble concentration"}}, "note": "Where a name gives a salt, the structure may show the parent alone. Read-outs that look alike come from different tables or passages of the source."}
{"smiles": "COc1cc(C(=O)NC2CN3CCC2CC3)ccc1Nc1ncc2c(n1)N(C1CCCC1)CC1(CCC1)C(=O)N2C", "note": "(racemic) [Compound 218, (±)-4-(9′-cyclopentyl-5′-methyl-6′-oxo-5′,6′,8′,9′-tetrahydrospiro[cyclobutane-1,7′-pyrimido[4,5-b][1,4]diazepine]-2′-ylamino)-3-methoxy-N-(quinuclidin-3-yl)benzamide]", "values": [{"measurement": "selectivity for PLK1 versus PLK2 compared to compound [I-4]", "setting": "PLK2; relative to [I-4]", "value": 7, "unit": "fold"}, {"measurement": "selectivity for PLK1 versus PLK2 compared to compound [I-64] of WO 07/095,188", "setting": "PLK2; relative to [I-64]", "value": "twice as selective"}, {"measurement": "selectivity for PLK1 versus PLK2 compared to compound [I-76]", "setting": "PLK2; relative to [I-76]", "value": "~6", "unit": "fold"}, {"measurement": "PLK2 IC50/PLK1 IC50", "setting": "PLK2", "value": 35}, {"measurement": "selectivity for PLK1 versus PLK3 compared to compound [I-4]", "setting": "PLK3; relative to [I-4]", "value": 5, "unit": "fold"}, {"measurement": "selectivity for PLK1 versus PLK3 compared to compound [I-64]", "setting": "PLK3; relative to [I-64]", "value": 5, "unit": "fold"}, {"measurement": "selectivity for PLK1 versus PLK3 compared to compound [I-76]", "setting": "PLK3; relative to [I-76]", "value": "~12", "unit": "fold"}, {"measurement": "PLK3 IC50/PLK1 IC50", "setting": "PLK3", "value": 330}]}
{"smiles": "COc1cc(C(=O)NC2CCN(C)CC2)ccc1Nc1ncc2c(n1)N(C(C)C)CC1(CC1)C(=O)N2C", "note": "[Compound 99, 4-(9-Isopropyl-5-methyl-6-oxo-6,7,8,9-tetrahydro-5H-spiro[pyrimido[4,5-b] [1,4]diazepin-3,1′-cyclopropane]-2-ylamino)-3-methoxy-N-(1-methyl-piperidin-4-yl)-benzamide]", "values": [{"measurement": "IC50", "setting": "human PLK1; Table 2", "value": "< 1000", "unit": "nM"}]}
{"smiles": "CN1C(=O)CCN(C2CCCC2)c2nc(NCc3ccsc3)ncc21", "note": "[Compound 106, 9-Cyclopentyl-5-methyl-2-[(thiophen-3-ylmethyl)-amino]-5,7,8,9-tetrahydro-pyrimido[4,5-b][1,4]di-azepin-6-one]", "values": [{"measurement": "IC50", "setting": "human PLK1; Table 2", "value": "< 1000", "unit": "nM"}]}
{"smiles": "COc1cc(C(=O)NC2c3ccccc3C[C@H]2O)ccc1Nc1ncc2c(n1)N(C1CCCC1)CC1(CC1)C(=O)N2C", "note": "(stereo partly drawn) [Compound 184, 4-(9-Cyclopentyl-5-methyl-6-oxo-6,7,8,9-tetrahydro-5H-spiro[pyrimido[4,5-b] [1,4]diazepin-3,1′-cyclopropane]-2-ylamino)-N-((1S,2R)-2-hydroxy-indan-1-yl)-3-methoxy-benzamide]", "values": [{"measurement": "IC50", "setting": "human PLK1; Table 2", "value": "< 1000", "unit": "nM"}]}
{"smiles": "COc1cc(C(=O)NCC2CCCCN2C)ccc1Nc1ncc2c(n1)N(C1CCCC1)CCC(=O)N2C", "note": "(stereo not shown) [Compound 202, 4-(9-Cyclopentyl-5-methyl-6-oxo-6,7,8,9-tetrahydro-5H-pyrimido[4,5-b] [1,4]diazepin-2-ylamino)-3-methoxy-N-(1-methyl-piperidin-2-ylmethyl)-benzamide]", "values": [{"measurement": "IC50", "setting": "human PLK1; Table 2", "value": "< 1000", "unit": "nM"}]}
{"smiles": "CCN(CC)CCNC(=O)c1ccc(Nc2ncc3c(n2)N(CC2CC2)CCC(=O)N3C)c(OC)c1", "note": "[Compound 240, 4-(9-Cyclopropyl-methyl-5-methyl-6-oxo-6,7,8,9-tetrahydro-5H-pyrimido[4,5-b] [1,4]diazepin-2-ylamino)-N-(2-diethylamino-ethyl)-3-methoxy-benzamide]", "values": [{"measurement": "IC50", "setting": "human PLK1; Table 2", "value": "< 100", "unit": "nM"}]}
{"smiles": "COc1cc(C(=O)NN2CCN(C)CC2)ccc1Nc1ncc2c(n1)N(C1CCCC1)CC1(CC1)C(=O)N2C", "note": "[Compound 254, 4-(9′-cyclopentyl-5′-methyl-6′-oxo-5′,6′,8′,9′-tetrahydrospiro[cyclopropane-1,7′-pyrimido[4,5-b][1,4]diazepine]-2′-ylamino)-3-methoxy-N-(4-methylpiperazin-1-yl)benzamide]", "values": [{"measurement": "solubility", "setting": "[1]; [3]", "value": "≥ 200", "unit": "µM"}, {"measurement": "solubility", "setting": "[1]; phosphate buffered saline with 2% DMSO, pH 7.5, aqueous buffer, kinetic from dmso stock, 2% DMSO: 98% phosphate buffered saline pH 7.5, read-out: Nephelometry soluble concentration", "value": "> 110", "unit": "µg/mL"}]}
{"smiles": "COc1cc(C(=O)N[C@H]2CC[C@H](N3CCN(CC4CC4)CC3)CC2)ccc1Nc1ncc2c(n1)N(C1CCCC1)CCC(=O)N2C", "note": "[Compound 378, 4-(9-cyclopentyl-5-methyl-6-oxo-6,7,8,9-tetrahydro-5H-pyrimido[4,5-b][1,4]diazepin-2-ylamino)-N-((trans)-4-(4-(cyclopropylmethyl)piperazin-1-yl)cyclohexyl)-3-methoxybenzamide]", "values": [{"measurement": "oral bioavailability (% F)", "setting": "[2]", "value": "markedly superior"}, {"measurement": "systemic exposure (AUC of plasma concentration vs time)", "setting": "[2]; iv 1 mg/kg and oral 5-10 mg/kg", "value": "markedly superior"}]}
{"smiles": "COc1cc(C(=O)NC2CCC(N3CCCN(Cc4ccccc4)CC3)CC2)ccc1Nc1ncc2c(n1)N(C1CCCC1)CC1(CC1)C(=O)N2C", "note": "(stereo not shown) [Compound 383, N-(4-(4-benzyl-1,4-diazepan-1-yl)cyclohexyl)-4-(9′-cyclopentyl-5′-methyl-6′-oxo-5′,6′,8′,9′-tetrahydrospiro[cyclopropane-1,7′-pyrimido[4,5-b][1,4]diazepine]-2′-ylamino)-3-methoxybenzamide]", "values": [{"measurement": "IC50", "setting": "human PLK1; Table 3, read-out: PLK 1 IC50", "value": "< 100", "unit": "nM"}]}
{"smiles": "COc1cc(C(=O)N[C@H]2CC[C@@H](N3CCOCC3)CC2)ccc1Nc1ncc2c(n1)N(C1CCCC1)CC1(CC1)C(=O)N2C", "note": "[Compound 391, 4-(9′-cyclopentyl-5′-methyl-6′-oxo-5′,6′,8′,9′-tetrahydrospiro[cyclopropane-1,7′-pyrimido[4,5-b][1,4]diazepine]-2′-ylamino)-3-methoxy-N-((cis)-4-morpholinocyclohexyl)benzamide]", "values": [{"measurement": "IC50", "setting": "human PLK1; Table 3, read-out: PLK 1 IC50", "value": "100 to 1000", "unit": "nM"}]}
{"smiles": "COc1cc(C(=O)NN2CCCC2)ccc1Nc1ncc2c(n1)N(C1CCCC1)CC1(CC1)C(=O)N2C", "note": "[Example [I-253] of WO 07/095188, reference compound]", "values": [{"measurement": "solubility", "setting": "[1]; [3]", "value": 75, "unit": "µM"}]}
{"smiles": "COc1cc(C(=O)NC2CCN(C)CC2)ccc1Nc1ncc2c(n1)N(C1CCCC1)CC1(CCC1)C(=O)N2C", "note": "[WO 2007/095188 [I-64], reference compound]", "values": [{"measurement": "PLK2 IC50/PLK1 IC50", "setting": "PLK2", "value": 17}, {"measurement": "PLK3 IC50/PLK1 IC50", "setting": "PLK3", "value": 67}]}
{"smiles": "COc1cc(C(=O)NC2CCN(C)CC2)ccc1Nc1ncc2c(n1)N(C1CCCC1)CC1(CC1)C(=O)N2C", "note": "[WO 2007/095188 [I-76], reference compound]", "values": [{"measurement": "PLK2 IC50/PLK1 IC50", "setting": "PLK2", "value": 6}, {"measurement": "PLK3 IC50/PLK1 IC50", "setting": "PLK3", "value": 26}]}
{"smiles": "COc1cc(C(=O)NN2CCN(C)CC2)ccc1Nc1ncc2c(n1)N(C1CCCC1)CC1(CC1)C(=O)N2C", "note": "[[254]•HCl, 4-(9′-cyclopentyl-5′-methyl-6′-oxo-5′,6′,8′,9′-tetrahydrospiro[cyclopropane-1,7′-pyrimido[4,5-b][1,4]diazepine]-2′-ylamino)-3-methoxy-N-(4-methylpiperazin-1-yl)benzamide•HCl]", "values": [{"measurement": "solubility", "setting": "[1]; pH 7.5, read-out: Nephelometry maximum soluble concentration", "value": ">200", "unit": "µM"}]}
